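Results reflect a 48-hour exposure of cells in 96-well plates to compound at five concentrations. GI50 marks 50% less growth. Definition used: TGI = concentration required for complete inhibition of growth.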
Legend:
Assay in all cases: DTP human tumour cell line panel, 48 h
SK-MEL-28 melanoma = system: SK-MEL-28 melanoma
NCI/ADR-RES ovarian = system: NCI/ADR-RES ovarian
SNB-19 CNS = system: SNB-19 CNS
CAKI-1 renal = system: CAKI-1 renal
SF-539 CNS = system: SF-539 CNS
M14 melanoma = system: M14 melanoma
COLO 205 colon = system: COLO 205 colon
RXF 393 renal = system: RXF 393 renal
SF-295 CNS = system: SF-295 CNS
OVCAR-8 ovarian = system: OVCAR-8 ovarian
HCT-116 colon = system: HCT-116 colon
786-0 renal = system: 786-0 renal
KM12 colon = system: KM12 colon
BT-549 breast = system: BT-549 breast
HOP-92 NSCLC = system: HOP-92 NSCLC
OVCAR-4 ovarian = system: OVCAR-4 ovarian
HT29 colon = system: HT29 colon
SK-MEL-5 melanoma = system: SK-MEL-5 melanoma
MDA-MB-435 = system: MDA-MB-435
ACHN renal = system: ACHN renal
A498 renal = system: A498 renal
NCI-H23 lung = system: NCI-H23 lung
SW-620 colon = system: SW-620 colon
SR leukemia = system: SR leukemia
TK-10 renal = system: TK-10 renal
PC-3 prostate = system: PC-3 prostate
HS 578T breast = system: HS 578T breast
LOX IMVI melanoma = system: LOX IMVI melanoma
MOLT-4 leukemia = system: MOLT-4 leukemia
HCC-2998 colon = system: HCC-2998 colon
SNB-75 CNS = system: SNB-75 CNS
IGROV1 ovarian = system: IGROV1 ovarian
EKVX NSCLC = system: EKVX NSCLC
MALME-3M melanoma = system: MALME-3M melanoma
NCI-H460 lung = system: NCI-H460 lung
MDA-MB-231 breast = system: MDA-MB-231 breast
OVCAR-5 ovarian = system: OVCAR-5 ovarian
SN12C renal = system: SN12C renal
DU-145 prostate = system: DU-145 prostate
UACC-257 melanoma = system: UACC-257 melanoma
UACC-62 melanoma = system: UACC-62 melanoma
K-562 leukemia = system: K-562 leukemia
A549 NSCLC = system: A549 NSCLC
NCI-H522 lung = system: NCI-H522 lung
CCRF-CEM leukemia = system: CCRF-CEM leukemia
SF-268 CNS = system: SF-268 CNS
SK-OV-3 ovarian = system: SK-OV-3 ovarian
UO-31 renal = system: UO-31 renal
HL-60(TB) leukemia = system: HL-60(TB) leukemia
MDA-MB-468 breast = system: MDA-MB-468 breast
NCI-H226 lung = system: NCI-H226 lung
RPMI-8226 leukemia = system: RPMI-8226 leukemia
HCT-15 colon = system: HCT-15 colon
SK-MEL-2 melanoma = system: SK-MEL-2 melanoma
MCF7 breast = system: MCF7 breast
OVCAR-3 ovarian = system: OVCAR-3 ovarian
HOP-62 NSCLC = system: HOP-62 NSCLC
T-47D breast = system: T-47D breast
U251 CNS = system: U251 CNS

Structure (SMILES): CN1CCN(c2ccc(Nc3nc(NCCCNC(=O)C4CCCCC4)c4sccc4n3)cc2)CC1
- GI50 (SK-MEL-28 melanoma): 6.24 µM
- TGI (SK-MEL-28 melanoma): 19.5 µM
- GI50 (NCI/ADR-RES ovarian): 21.1 µM
- TGI (NCI/ADR-RES ovarian): 54.5 µM
- GI50 (SNB-19 CNS): 22.1 µM
- TGI (SNB-19 CNS): 47.1 µM
- GI50 (CAKI-1 renal): 14.5 µM
- TGI (CAKI-1 renal): 30.5 µM
- GI50 (SF-539 CNS): 3.15 µM
- TGI (SF-539 CNS): 12.8 µM
- GI50 (M14 melanoma): 4.23 µM
- TGI (M14 melanoma): 16 µM
- GI50 (COLO 205 colon): 17.7 µM
- TGI (COLO 205 colon): 38.2 µM
- GI50 (RXF 393 renal): 5.49 µM
- TGI (RXF 393 renal): 20 µM
- GI50 (SF-295 CNS): 12.9 µM
- TGI (SF-295 CNS): 26.3 µM
- GI50 (OVCAR-8 ovarian): 16 µM
- TGI (OVCAR-8 ovarian): 36.7 µM
- GI50 (HCT-116 colon): 3.98 µM
- TGI (HCT-116 colon): 18.5 µM
- GI50 (786-0 renal): 10.8 µM
- TGI (786-0 renal): 26.4 µM
- GI50 (KM12 colon): 19.4 µM
- TGI (KM12 colon): 44.9 µM
- GI50 (BT-549 breast): 13.3 µM
- TGI (BT-549 breast): 27.3 µM
- GI50 (HOP-92 NSCLC): 10.6 µM
- TGI (HOP-92 NSCLC): 34.3 µM
- GI50 (OVCAR-4 ovarian): 15.7 µM
- TGI (OVCAR-4 ovarian): 57.7 µM
- GI50 (HT29 colon): 4.28 µM
- TGI (HT29 colon): 17 µM
- GI50 (SK-MEL-5 melanoma): 8.82 µM
- TGI (SK-MEL-5 melanoma): 21 µM
- GI50 (MDA-MB-435): 15.6 µM
- TGI (MDA-MB-435): 30.8 µM
- GI50 (ACHN renal): 15.6 µM
- TGI (ACHN renal): 35.1 µM
- GI50 (A498 renal): 22 µM
- TGI (A498 renal): 37.7 µM
- GI50 (NCI-H23 lung): 14.1 µM
- TGI (NCI-H23 lung): 29.1 µM
- GI50 (SW-620 colon): 17.3 µM
- TGI (SW-620 colon): 36.4 µM
- GI50 (SR leukemia): 2.13 µM
- TGI (SR leukemia): 6.3 µM
- GI50 (TK-10 renal): 24.6 µM
- TGI (TK-10 renal): 51.7 µM
- GI50 (PC-3 prostate): 12.4 µM
- TGI (PC-3 prostate): 42.2 µM
- GI50 (HS 578T breast): 12.8 µM
- TGI (HS 578T breast): 36.2 µM
- GI50 (LOX IMVI melanoma): 10.7 µM
- TGI (LOX IMVI melanoma): 23.1 µM
- GI50 (MOLT-4 leukemia): 3.19 µM
- TGI (MOLT-4 leukemia): 20.8 µM
- GI50 (HCC-2998 colon): 13.8 µM
- TGI (HCC-2998 colon): 26.9 µM
- GI50 (SNB-75 CNS): 11.2 µM
- TGI (SNB-75 CNS): 24.7 µM
- GI50 (IGROV1 ovarian): 14 µM
- TGI (IGROV1 ovarian): 30.8 µM
- GI50 (EKVX NSCLC): 15.8 µM
- TGI (EKVX NSCLC): 33.9 µM
- GI50 (MALME-3M melanoma): 7.31 µM
- TGI (MALME-3M melanoma): 19.8 µM
- GI50 (NCI-H460 lung): 14.6 µM
- TGI (NCI-H460 lung): 30.8 µM
- GI50 (MDA-MB-231 breast): 13.2 µM
- TGI (MDA-MB-231 breast): 30.8 µM
- GI50 (OVCAR-5 ovarian): 16.1 µM
- TGI (OVCAR-5 ovarian): 34.6 µM
- GI50 (SN12C renal): 14.2 µM
- TGI (SN12C renal): 29.4 µM
- GI50 (DU-145 prostate): 14.9 µM
- TGI (DU-145 prostate): 30.5 µM
- GI50 (UACC-257 melanoma): 3.61 µM
- TGI (UACC-257 melanoma): 14.9 µM
- GI50 (UACC-62 melanoma): 15.1 µM
- TGI (UACC-62 melanoma): 28.6 µM
- GI50 (K-562 leukemia): 2.72 µM
- TGI (K-562 leukemia): 47 µM
- GI50 (A549 NSCLC): 20.7 µM
- TGI (A549 NSCLC): 80.8 µM
- GI50 (NCI-H522 lung): 13 µM
- TGI (NCI-H522 lung): 27 µM
- GI50 (CCRF-CEM leukemia): 3.77 µM
- TGI (CCRF-CEM leukemia): 37.6 µM
- GI50 (SF-268 CNS): 10.4 µM
- TGI (SF-268 CNS): 40.7 µM
- GI50 (SK-OV-3 ovarian): 23.4 µM
- TGI (SK-OV-3 ovarian): 59.2 µM
- GI50 (UO-31 renal): 11.9 µM
- TGI (UO-31 renal): 24.6 µM
- GI50 (HL-60(TB) leukemia): 4.55 µM
- TGI (HL-60(TB) leukemia): 23.3 µM
- GI50 (MDA-MB-468 breast): 2.96 µM
- TGI (MDA-MB-468 breast): 17.2 µM
- GI50 (NCI-H226 lung): 12.6 µM
- TGI (NCI-H226 lung): 26.3 µM
- GI50 (RPMI-8226 leukemia): 3.92 µM
- TGI (RPMI-8226 leukemia): 19.9 µM
- GI50 (HCT-15 colon): 5.77 µM
- TGI (HCT-15 colon): 25.6 µM
- GI50 (SK-MEL-2 melanoma): 18.7 µM
- TGI (SK-MEL-2 melanoma): 33.6 µM
- GI50 (MCF7 breast): 10 µM
- TGI (MCF7 breast): 24 µM
- GI50 (OVCAR-3 ovarian): 16.2 µM
- TGI (OVCAR-3 ovarian): 33.5 µM
- GI50 (HOP-62 NSCLC): 18.2 µM
- TGI (HOP-62 NSCLC): 36.3 µM
- GI50 (T-47D breast): 11.4 µM
- TGI (T-47D breast): 37.9 µM
- GI50 (U251 CNS): 4.64 µM
- TGI (U251 CNS): 19.9 µM
